Where “and” joins values, the source holds several entries; their conditions need not be identical. Identical values can stand only once.
Assays:
[1] = Complete blood count / biological data of SS patients during treatment with hydroxyurea; assay type: in vivo, human
[2] = test system: HbF; assay: Mean HbF percentage (% HbF) by HPLC in SS patients before and during treatment with hydroxyurea
[3] = test system: HbF; assay: HbF content of each red blood cell by flow cytometry (HbF distribution) during treatment with hydroxyurea
[4] = SS patients, M6 of hydroxyurea, median
[5] = 9 SS patients, D15-M3, mean (standard deviation)
[6] = 9 SS patients, ≥M6, mean (standard deviation)

## NC(=O)NO [hydroxyurea]
[1]; [4]
  Hemoglobin: 9.35 g/dL
  MCHC: 34.40 g/dL
  MCHCo: 33.80 pg
  MCV: 100.50 femtoliter
[1]; after 6 months of treatment
  change in mean corpuscular hemoglobin concentration (MCHC): no significant variation
  change in mean corpuscular volume (MCV): significant increase
  change in mean hemoglobin content per red blood cell (MCHCo): significant increase
[1]; after 6 months of treatment, decrease not significant
  change in percentage of dense red blood cells: tendency to decrease
[1]; patient 11
  ASAT, relative difference in % D 0 vs M 6: −52% and −52.7%
  HbF, relative difference in % D 0 vs M 6: +14.5%
  LDH, relative difference in % D 0 vs M 6: −57% and −57.7%
  RETIC, relative difference in % D 0 vs M 6: −77% and −77.1%
[1]; patient 11, M 6
  ASAT (aspartate transaminase): 26 IU/l
  HbF: 7.1 g/dL
  LDH (lactate dehydrogenase): 383 IU/l
  MCHCo: 38.9 pg
[1]; patient 24
  ASAT, relative difference in % D 0 vs M 6: −9.4%
  HbF, relative difference in % D 0 vs M 6: +14.5%
  LDH, relative difference in % D 0 vs M 6: −40.5%
  RETIC, relative difference in % D 0 vs M 6: −57% and −57.2%
[1]; patient 24, M 6
  ASAT (aspartate transaminase): 29 IU/l
  HbF: 8.7 g/dL
  LDH (lactate dehydrogenase): 303 IU/l
  MCHCo: 42 pg
[2]; after 6 months of treatment, SS patients
  increase of mean HbF percentage (% HbF): approximately 3 fold
[2]; patient 2, M6
  % HbF: 25%
[2]; patient 11, M 6
  % HbF: 18%
[2]; patient 24, M 6
  % HbF: 18%
[2]; total red blood cells, SS patients, D15-M1 of hydroxyurea, median
  % HbF: 4.9%
[2]; total red blood cells, SS patients, M3-M4 of hydroxyurea, median
  % HbF: 7%
[2]; total red blood cells, SS patients, M6 of hydroxyurea, median
  % HbF: 10.05%
[3]; [5]
  % RBCs with HbF [0; 2[ pg: 65.63 (25.13 % RBCs
  % RBCs with HbF [2; 4[ pg: 11.32 (6.80 % RBCs
  % RBCs with HbF [4; 6[ pg: 4.88 (2.90 % RBCs
  % RBCs with HbF [6; 8[ pg: 3.42 (2.52 % RBCs
  % RBCs with HbF [8; 10[ pg: 2.65 (2.18 % RBCs
  % RBCs with HbF [10; 15[ pg: 2.41 (2.73 % RBCs
  % RBCs with HbF [15; 20[ pg: 4.42 (4.27 % RBCs
  % RBCs with HbF ≥20 pg: 5.27 (8.56 % RBCs
[3]; [6]
  % RBCs with HbF [0; 2[ pg: 53.17 (30.63 % RBCs
  % RBCs with HbF [2; 4[ pg: 15.05 (10.11 % RBCs
  % RBCs with HbF [4; 6[ pg: 6.70 (4.39 % RBCs
  % RBCs with HbF [6; 8[ pg: 3.92 (2.44 % RBCs
  % RBCs with HbF [8; 10[ pg: 2.72 (1.83 % RBCs
  % RBCs with HbF [10; 15[ pg: 2.55 (2.57 % RBCs
  % RBCs with HbF [15; 20[ pg: 4.29 (3.42 % RBCs
  % RBCs with HbF ≥20 pg: 11.60 (18.64 % RBCs
[3]; D0 to M6
  variation of red blood cells with medium-high HbF contents: much lower variations
[3]; after 6 months of treatment
  change in red blood cells having a very low HbF content: decreased greatly
  increase of red blood cells with HbF content greater than 20 pg: up to 3 fold
[3]; after 6 months of treatment, heterogeneous before treatment in 8 patients, 9 analyzed
  patients in whom HbF follows a homogeneous distribution: 6 patients
[3]; after 6 months of treatment, variation not significant
  increase of red blood cells with HbF content greater than 20 g: up to 3 times
[3]; after ≥M4
  patients in whom HbF distribution becomes homogeneous: 5 patients
[3]; between D0 and M6, 9 patients
  variation in red blood cells having the lowest HbF contents (0 and 2 pg), given as increase: approximately 25%
[3]; patient 2, D15-M1
  % RBCs with HbF [0; 2[ pg: 9.21 % RBCs
  % RBCs with HbF [2; 4[ pg: 14.72 % RBCs
  % RBCs with HbF [4; 6[ pg: 9.52 % RBCs
  % RBCs with HbF [6; 8[ pg: 8.47 % RBCs
  % RBCs with HbF [8; 10[ pg: 7.35 % RBCs
  % RBCs with HbF [10; 15[ pg: 9.03 % RBCs
  % RBCs with HbF [15; 20[ pg: 14.27 % RBCs
  % RBCs with HbF ≥20 pg: 27.43 % RBCs
[3]; patient 2, M3-M4
  % RBCs with HbF [0; 2[ pg: 5.29 % RBCs
  % RBCs with HbF [2; 4[ pg: 8.62 % RBCs
  % RBCs with HbF [4; 6[ pg: 10.61 % RBCs
  % RBCs with HbF [6; 8[ pg: 10.39 % RBCs
  % RBCs with HbF [8; 10[ pg: 8.75 % RBCs
  % RBCs with HbF [10; 15[ pg: 8.50 % RBCs
  % RBCs with HbF [15; 20[ pg: 14.54 % RBCs
  % RBCs with HbF ≥20 pg: 33.30 % RBCs
[3]; patient 2, at M6
  change in red blood cells containing HbF content greater than 20 pg: clear increase
[3]; patient 2, ≥M6
  % RBCs with HbF [0; 2[ pg: 4.98 % RBCs
  % RBCs with HbF [2; 4[ pg: 7.04 % RBCs
  % RBCs with HbF [4; 6[ pg: 5.53 % RBCs
  % RBCs with HbF [6; 8[ pg: 4.85 % RBCs
  % RBCs with HbF [8; 10[ pg: 4.56 % RBCs
  % RBCs with HbF [10; 15[ pg: 7.48 % RBCs
  % RBCs with HbF [15; 20[ pg: 9.75 % RBCs
  % RBCs with HbF ≥20 pg: 55.81 % RBCs
[3]; patient 11, D15-M1
  % RBCs with HbF [0; 2[ pg: 55.38 % RBCs
  % RBCs with HbF [2; 4[ pg: 23.31 % RBCs
  % RBCs with HbF [4; 6[ pg: 6.25 % RBCs
  % RBCs with HbF [6; 8[ pg: 3.07 % RBCs
  % RBCs with HbF [8; 10[ pg: 2.55 % RBCs
  % RBCs with HbF [10; 15[ pg: 2.24 % RBCs
  % RBCs with HbF [15; 20[ pg: 4.42 % RBCs
  % RBCs with HbF ≥20 pg: 2.78 % RBCs
[3]; patient 11, M3-M4
  % RBCs with HbF [0; 2[ pg: 48.83 % RBCs
  % RBCs with HbF [2; 4[ pg: 31.73 % RBCs
  % RBCs with HbF [4; 6[ pg: 9.30 % RBCs
  % RBCs with HbF [6; 8[ pg: 4.32 % RBCs
  % RBCs with HbF [8; 10[ pg: 2.04 % RBCs
  % RBCs with HbF [10; 15[ pg: 0.72 % RBCs
  % RBCs with HbF [15; 20[ pg: 2.46 % RBCs
  % RBCs with HbF ≥20 pg: 0.59 % RBCs
[3]; patient 11, at 6 months of treatment
  RBCs >6 pg HbF: 57%
[3]; patient 11, at M6
  decrease of red blood cells with HbF content of less than 2 pg: approximately 73%
[3]; patient 11, ≥M6
  % RBCs with HbF [0; 2[ pg: 12.93 % RBCs
  % RBCs with HbF [2; 4[ pg: 17.62 % RBCs
  % RBCs with HbF [4; 6[ pg: 11.85 % RBCs
  % RBCs with HbF [6; 8[ pg: 8.05 % RBCs
  % RBCs with HbF [8; 10[ pg: 6.08 % RBCs
  % RBCs with HbF [10; 15[ pg: 6.13 % RBCs
  % RBCs with HbF [15; 20[ pg: 9.77 % RBCs
  % RBCs with HbF ≥20 pg: 27.57 % RBCs
[3]; patient 24, D15-M1
  % RBCs with HbF [0; 2[ pg: 53.17 % RBCs
  % RBCs with HbF [2; 4[ pg: 11.57 % RBCs
  % RBCs with HbF [4; 6[ pg: 6.69 % RBCs
  % RBCs with HbF [6; 8[ pg: 5.58 % RBCs
  % RBCs with HbF [8; 10[ pg: 4.50 % RBCs
  % RBCs with HbF [10; 15[ pg: 3.89 % RBCs
  % RBCs with HbF [15; 20[ pg: 7.56 % RBCs
  % RBCs with HbF ≥20 pg: 7.04 % RBCs
[3]; patient 24, M3-M4
  % RBCs with HbF [0; 2[ pg: 44.56 % RBCs
  % RBCs with HbF [2; 4[ pg: 24.93 % RBCs
  % RBCs with HbF [4; 6[ pg: 12.53 % RBCs
  % RBCs with HbF [6; 8[ pg: 5.81 % RBCs
  % RBCs with HbF [8; 10[ pg: 3.09 % RBCs
  % RBCs with HbF [10; 15[ pg: 1.87 % RBCs
  % RBCs with HbF [15; 20[ pg: 3.81 % RBCs
  % RBCs with HbF ≥20 pg: 3.41 % RBCs
[3]; patient 24, at 6 months of treatment
  RBCs >6 pg HbF: 24%
[3]; patient 24, at M6
  decrease of red blood cells with HbF content of less than 2 pg: approximately 40%
[3]; patient 24, ≥M6
  % RBCs with HbF [0; 2[ pg: 36.98 % RBCs
  % RBCs with HbF [2; 4[ pg: 25.28 % RBCs
  % RBCs with HbF [4; 6[ pg: 13.64 % RBCs
  % RBCs with HbF [6; 8[ pg: 6.92 % RBCs
  % RBCs with HbF [8; 10[ pg: 3.93 % RBCs
  % RBCs with HbF [10; 15[ pg: 2.70 % RBCs
  % RBCs with HbF [15; 20[ pg: 5.36 % RBCs
  % RBCs with HbF ≥20 pg: 5.20 % RBCs
[3]; starting from M2
  patients in whom HbF distribution becomes homogeneous: 1 patient
